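Test compounds were applied to cells in 96-well plates for 48 hours at 5 doses. GI50 = concentration required for 50% inhibition of growth.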 Calls of active or inactive are those of the source. Rule as the data show it: active = GI50 up to about 1.1 µM and inactive = higher.
Experiments:
Experiment in all cases: NCI-60 cell line screen, 48 h
[1] = test system: SF-295
[2] = test system: CCRF-CEM
[3] = test system: SK-OV-3
[4] = test system: SW-620
[5] = test system: UACC-62
[6] = test system: OVCAR-8
[7] = test system: A498
[8] = test system: HL-60
[9] = test system: DU-145
[10] = test system: HOP-62
[11] = test system: IGROV-1
[12] = test system: MDA-MB-231
[13] = test system: NCI-H460
[14] = test system: KM12
[15] = test system: HCT-116
[16] = test system: OVCAR-3
[17] = test system: OVCAR-4
[18] = test system: Malme-3M
[19] = test system: K562
[20] = test system: SR

Compound | GI50 [1] | GI50 [2] | GI50 [3] | GI50 [4] | GI50 [5] | GI50 [6] | GI50 [7] | GI50 [8] | GI50 [9] | GI50 [10] | GI50 [11] | GI50 [12] | GI50 [13] | GI50 [14] | GI50 [15] | GI50 [16] | GI50 [17] | GI50 [18] | GI50 [19] | GI50 [20]
Cc1[nH]c2c(c1Cc1ccccc1)C1=NC=C(O)NN1C=N2 | 62.4 µM (inactive) | 20.5 µM (inactive) | > 100 µM (inactive) | 21.5 µM (inactive) | 65.6 µM (inactive) | 51.4 µM (inactive) | > 100 µM (inactive) | > 100 µM (inactive) | > 100 µM (inactive) | > 100 µM (inactive) | 10 µM (inactive) | > 100 µM (inactive) | 36.4 µM (inactive) | > 100 µM (inactive) | 85.7 µM (inactive) | 60.4 µM (inactive) | > 100 µM (inactive) | > 100 µM (inactive) |  | 
CN(NC(=O)/C(=C\c1ccco1)NC(=O)c1ccccc1)c1cn[nH]c(=O)c1Cl | 64.4 µM (inactive) | 24.6 µM (inactive) | > 100 µM (inactive) | 45.9 µM (inactive) | > 100 µM (inactive) | 42.7 µM (inactive) |  |  | > 100 µM (inactive) | 64.3 µM (inactive) | 49.3 µM (inactive) | > 100 µM (inactive) | > 100 µM (inactive) | 40.6 µM (inactive) | 51.5 µM (inactive) | 27.9 µM (inactive) | > 100 µM (inactive) | 39.3 µM (inactive) | 60.1 µM (inactive) | 29.9 µM (inactive)
Cc1ccc(Nc2nnc(-c3ccc4c(c3)OCO4)o2)c(C)c1 | > 100 µM (inactive) |  | > 100 µM (inactive) | > 100 µM (inactive) | 32.8 µM (inactive) | 55.1 µM (inactive) | 39.6 µM (inactive) |  | > 100 µM (inactive) | > 100 µM (inactive) | > 100 µM (inactive) | 62.2 µM (inactive) | > 100 µM (inactive) | > 100 µM (inactive) | > 100 µM (inactive) | > 100 µM (inactive) | > 100 µM (inactive) | > 100 µM (inactive) | > 100 µM (inactive) | 31.1 µM (inactive)
C[C@@H](CO)C1=C(O)C(=O)c2c(ccc3c2CCCC3(C)C)C1=O | 30.4 µM (inactive) | 3.33 µM (inactive) | 61.9 µM (inactive) | 28.3 µM (inactive) | 23.2 µM (inactive) | 35.2 µM (inactive) | 33 µM (inactive) | < 0.01 µM (active) | 47 µM (inactive) | 29.2 µM (inactive) | 37.2 µM (inactive) | 61.4 µM (inactive) |  | 37.2 µM (inactive) | 45.5 µM (inactive) | 28.2 µM (inactive) | 46.7 µM (inactive) | 15.9 µM (inactive) | 30.3 µM (inactive) | 
O=C1/C(=N/N=C(c2ccccc2)c2ccccc2)c2ccccc2-c2ccccc21 | 64 µM (inactive) |  | > 100 µM (inactive) | > 100 µM (inactive) | 55.2 µM (inactive) | > 100 µM (inactive) |  | > 100 µM (inactive) | > 100 µM (inactive) | > 100 µM (inactive) | 73.1 µM (inactive) | 31.6 µM (inactive) | > 100 µM (inactive) | > 100 µM (inactive) | 52.1 µM (inactive) | 40.8 µM (inactive) | 77.3 µM (inactive) | 78.5 µM (inactive) | > 100 µM (inactive) | 51.2 µM (inactive)
O=C(O)CCCc1ccc2ccc3ccccc3c2c1 | 21.8 µM (inactive) |  |  |  | 38.3 µM (inactive) | 71.9 µM (inactive) | 73.5 µM (inactive) |  | > 100 µM (inactive) | 34.8 µM (inactive) | > 100 µM (inactive) | 73.1 µM (inactive) | 58.3 µM (inactive) | 35.6 µM (inactive) | 89.1 µM (inactive) | 53.6 µM (inactive) | > 100 µM (inactive) | 39.4 µM (inactive) | 42.5 µM (inactive) | 51.9 µM (inactive)
O=c1cc(-c2ccccc2)[nH]c2cccc(S)c12 | 0.115 µM (active) | 0.177 µM (active) | 0.119 µM (active) | 0.0566 µM (active) | 0.155 µM (active) | 0.324 µM (active) |  | 0.201 µM (active) | 0.393 µM (active) | 0.331 µM (active) | 0.341 µM (active) | 0.455 µM (active) | 0.301 µM (active) | 0.277 µM (active) | 0.0867 µM (active) | 3.14 µM (inactive) | 4.8 µM (inactive) | 0.153 µM (active) | 0.0588 µM (active) | 0.172 µM (active)
Clc1ccc(C2=CCN3CC=C(c4ccc(Cl)cc4)C23)cc1 | 14.6 µM (inactive) | 12.8 µM (inactive) |  | 13.3 µM (inactive) | 7.24 µM (inactive) | 14.2 µM (inactive) |  | 4.78 µM (inactive) | 14.7 µM (inactive) | 13.8 µM (inactive) | 9.93 µM (inactive) | 12.4 µM (inactive) | 9.98 µM (inactive) | 6.64 µM (inactive) | 5.98 µM (inactive) | 12.6 µM (inactive) | 8.26 µM (inactive) | 13.6 µM (inactive) | 3.17 µM (inactive) | 6.7 µM (inactive)

Reference: ChEMBL document CHEMBL1201862, “PubChem BioAssay data set” (2004)
